What was measured:
[1] = target: T1, human Smo (amino acids 181-787) (Homo sapiens, UniProt Q99835); assay: Smo radioligand competition binding assay (displacement of 3H-PF-03451358 from HEK293 membranes); settings: for inhibition at 0.05 µM: 0.05 μM test compound, displacement of 3H-PF-03451358, read-out: SMO % inh. @ 0.05 μM; for IC50: radioligand competition binding
T1 construct: expressed in transfected cells; membrane preparation
Summary of the method: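 Displacement of 3 nM tritiated PF-03451358 measured by filtration and scintillation counting after 2 h at room temperature, using 40 μg/well HEK293 membranes bearing cell-surface Smo 181-787, pH 7.5 buffer. Specific binding defined against 30 μM unlabelled ligand; IC50 via variable-slope sigmoidal fit.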

[2] = system: Gli-Luc/MEF cells (Smo); assay: Gli-Luc/MEF assay (Shh-stimulated luciferase reporter under the Gli response element); format: cell-based, mouse
Summary of the method: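 IC50 derived from luminescence (Bright-Glo) after 48 h at 37° C, 5% CO2, with compound at […] (3-fold dilutions) added together with mouse Shh at 2 μg/mL final. Cells: MEFs from Gli-Luc transgenic mice.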

T1 sequence (Q99835 181-787): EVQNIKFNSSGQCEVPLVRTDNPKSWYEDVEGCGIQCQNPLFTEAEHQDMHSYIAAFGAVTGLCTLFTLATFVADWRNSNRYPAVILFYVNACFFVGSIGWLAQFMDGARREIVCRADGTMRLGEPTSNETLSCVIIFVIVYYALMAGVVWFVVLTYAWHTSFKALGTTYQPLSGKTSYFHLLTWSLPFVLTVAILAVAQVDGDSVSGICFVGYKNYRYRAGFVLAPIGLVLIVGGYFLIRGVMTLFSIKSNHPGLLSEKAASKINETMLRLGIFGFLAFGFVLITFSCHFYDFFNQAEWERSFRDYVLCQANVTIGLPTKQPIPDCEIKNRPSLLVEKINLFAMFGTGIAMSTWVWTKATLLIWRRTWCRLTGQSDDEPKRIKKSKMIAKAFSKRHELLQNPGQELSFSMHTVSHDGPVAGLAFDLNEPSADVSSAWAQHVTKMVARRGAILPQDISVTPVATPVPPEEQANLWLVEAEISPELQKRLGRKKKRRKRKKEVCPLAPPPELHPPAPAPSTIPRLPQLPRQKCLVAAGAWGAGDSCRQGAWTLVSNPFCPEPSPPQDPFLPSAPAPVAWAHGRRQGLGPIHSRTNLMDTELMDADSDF

| SMILES | inhibition at 0.05 µM [1] [%] | IC50 [1] [nM] | IC50 ([2]; Mus musculus, MEF, 48 h) [nM] | IC50 ([2]; 48 hours) [nM] |
| --- | --- | --- | --- | --- |
| Cn1c(-c2cc(N3CCC(NS(C)(=O)=O)CC3)ncc2Cl)nc2ccccc21 [Example A-5, N-{1-[5-chloro-4-(1-methyl-1H-benzimidazol-2-yl)pyridin-2-yl]piperidin-4-yl}methanesulfonamide] | 97 | 8 | 0.6 | – |
| CCNC(=O)N1CCN(c2cc(-c3nc4ccccc4n3C)c(F)cn2)CC1 [Example D-3, N-ethyl-4-[5-fluoro-4-(1-methyl-1H-benzimidazol-2-yl)pyridin-2-yl]piperazine-1-carboxamide] | 98 | 8 | 10 | – |
| Cn1c(-c2cc(N3CCC(NS(C)(=O)=O)CC3)ncc2F)nc2ccccc21 [Example D-11, N-{1-[5-fluoro-4-(1-melhyl-1H-benzimidazol-2-yl)pyridin-2-yl]piperidin-4-yl}methanesulfonamide] | 98 | 6 | 4.2 | – |
| Cn1c(-c2cc(N3CCC(NS(C)(=O)=O)CC3)ncc2Cl)nc2cccnc21 [Example A-36, N-{1-[5-chloro-4-(3-methyl-3H-imidazo[4,5-b]pyridin-2-yl)pyridin-2-yl]piperidin-4-yl}methanesulfonamide] | 93 | 23 | 12 | – |
| Cn1c(-c2cc(N3CCN(CCS(C)(=O)=O)CC3)ncc2Cl)nc2ccccc21 [Example A-206, 2-(5-chloro-2-{4-[2-(methylsulfonyl)ethyl]piperazin-1-yl}pyridin-4-yl)-1-methyl-1H-benzimidazole] | 99 | 17 | – | 17.1 |
| Cn1c(-c2cc(N3CCN(C=O)CC3)ncc2Cl)nc2cccnc21 [Example A-170, 4-[5-chloro-4-(3-methyl-3H-imidazo[4,5-b]pyridin-2-yl)pyridin-2-yl]piperazine-1-carbaldehyde] | 81 | 140 | 118 | – |
| C[C@H]1CN(c2cc(-c3nc4ccccc4n3C)c(Cl)cn2)CCN1 [Example A-160, 2-{5-chloro-2-[(3S)-3-methylpiperazin-1-yl]pyridin-4-yl}-1-methyl-1H-benzimidazole] | 98 | 16 | 7 | – |
| Cn1c(-c2cc(N3CCN(C(=O)C4CCOC4)CC3)ncc2Cl)nc2ccccc21 (stereo not drawn) [Example A-191, 2-{5-chloro-2-[4-(tetrahydrofuran-3-ylcarbonyl)piperazin-1-yl]pyridin-4-yl}-1-methyl-1H-benzimidazole] | 101 | 6 | 1.7 | – |
| Cn1c(-c2cc(N3CCN(C4CCS(=O)(=O)C4)CC3)ncc2Cl)nc2ccccc21 (stereo not drawn) [Example A-86, 2-{5-chloro-2-[4-(1,1-dioxidotetrahydro-3-thienyl)piperazin-1-yl]pyridin-4-yl}-1-methyl-1H-benzimidazole] | 90 | 61 | 43 | – |
| CC(=O)NC1CCN(c2cc(-c3nc4ccccc4n3C)ccn2)CC1 [Example A-16, N-{1-[4-(1-methyl-1H-benzimidazol-2-yl)pyridin-2-yl]piperidin-4-yl}acetamide] | 81 | 102 | 65 | – |
| C[C@H]1CN(c2cc(-c3nc4ccccc4n3C)c(Cl)cn2)CCN1S(C)(=O)=O [Example A-161, 2-{5-chloro-2-[(3S)-3-methyl-4-(methylsulfonyl)piperazin-1-yl]pyridin-4-yl}-1-methyl-1H-benzimidazole] | 98 | 9 | 3 | – |
| CN1CC2(CCN(c3cc(-c4nc5ccccc5n4C)c(Cl)cn3)CC2)CC1=O [Example A-77, 8-[5-chloro-4-(1-methyl-1H-benzimidazol-2-yl)pyridin-2-yl]-2-methyl-2,8-diazaspiro[4.5]decan-3-one] | 92 | 29 | 15 | – |
| COC(=O)N1CCN(c2cccc(-c3nc4ccccc4n3C)n2)CC1 [Example B-9, methyl 4-[6-(1-methyl-1H-benzimidazol-2-yl)pyridin-2-yl]piperazine-1-carboxylate] | 82 | 122 | 143 | – |
| Cn1c(-c2cccc(N3CCN(S(C)(=O)=O)CC3)n2)nc2ccccc21 [Example B-7, 1-methyl-2-{6-[4-(methylsulfonyl)piperazin-1-yl]pyridin-2-yl}-1H-benzimidazole] | 78 | 97 | 189 | – |
| Cn1c(-c2nc(N3CCC(NS(C)(=O)=O)CC3)ccc2Cl)nc2ccccc21 [Example B-12, N-{1-[5-chloro-6-(1-methyl-1H-benzimidazol-2-yl)pyridin-2-yl]piperidin-4-yl}methanesulfonamide] | 100 | 10 | 1 | – |
| Cn1c(-c2cc(N3CCC(O)CC3)ncc2Cl)nc2cccnc21 [Example A-169, 1-[5-chloro-4-(3-methyl-3H-imidazo[4,5-b]pyridin-2-yl)pyridin-2-yl]piperidin-4-ol] | 76 | 219 | 138 | – |
| CNC(=O)N1CCN(c2cc(-c3nc4ccccc4n3C)ccn2)CC1 [Example A-144, N-methyl-4-[4-(1-methyl-1H-benzimidazol-2-yl)pyridin-2-yl]piperazine-1-carboxamide] | 78 | 90 | 159 | – |
| Cn1c(-c2cc(NCCS(N)(=O)=O)ncc2Cl)nc2ccccc21 [Example A-165, 2-{[5-chloro-4-(1-methyl-1H-benzimidazol-2-yl)pyridin-2-yl]amino}ethanesulfonamide] | 62 | 374 | 280 | – |
| CNC(=O)N1CCN(c2cccc(-c3nc4ccccc4n3C)n2)CC1 [Example B-10, N-methyl-4-[6-(1-methyl-1H-benzimidazol-2-yl)pyridin-2-yl]piperazine-1-carboxamide] | 72 | 82 | 89 | – |
| COC(=O)N1CCN(c2cc(-c3nc4ccccc4n3C)c(Cl)cn2)CC1 [Example A-2, methyl 4-[5-chloro-4-(1-methyl-1H-benzimidazol-2-yl)pyridin-2-yl]piperazine-1-carboxylate] | 87 | 17.2 | 3 | – |
| CC(=O)N1CCN(c2cc(-c3nc4ccccc4n3C)ccn2)CC1 [Example A-29, 2-[2-(4-acetylpiperazin-1-yl)pyridin-4-yl]-1-methyl-1H-benzimidazole] | 78 | 61 | 110 | – |
| CN(C)CC(=O)N1CCN(c2ncc(Cl)c(-c3nc4ccccc4n3C)n2)CC1 [Example C-15, 2-{4-[5-chloro-4-(1-methyl-1H-benzimidazol-2-yl)pyrimidin-2-yl]piperazin-1-yl}-N,N-dimethyl-2-oxoethanamine] | 95 | 64 | 8.9 | – |
| Cn1c(-c2cc(N3C[C@H]4CC[C@@H](C3)N4)ncc2Cl)nc2ccccc21 [Example A-185, 2-{5-chloro-2-[(1R,5S)-3,8-diazabicyclo[3.2.1]oct-3-yl]pyridin-4-yl}-1-methyl-1H-benzimidazole] | 91 | 20 | 14 | – |
| C[C@H]1CN(S(C)(=O)=O)CCN1c1cc(-c2nc3ccccc3n2C)c(Cl)cn1 [Example A-196, 2-{5-chloro-2-[(2S)-2-methyl-4-(methylsulfonyl)piperazin-1-yl]pyridin-4-yl}-1-methyl-1H-benzimidazole] | 99 | 8 | 6.7 | – |
| CC(=O)N1CCN(c2cc(-c3nc4ccccc4n3C)c(Cl)cn2)[C@@H](C)C1 [Example A-199, 2-{2-[(2S)-4-acetyl-2-methylpiperazin-1-yl]-5-chloropyridin-4-yl}-1-methyl-1H-benzimidazole] | 100 | 9 | 7.2 | – |
| Cn1c(-c2ccnc(N3CCC(S(C)(=O)=O)CC3)c2)nc2ccccc21 [Example A-10, 1-methyl-2-{2-[4-(methylsulfonyl)piperidin-1-yl]pyridin-4-yl}-1H-benzimidazole] | 80 | 95 | 38 | – |
| COC1CCOC2(CCN(c3cc(-c4nc5ccccc5n4C)c(Cl)cn3)CC2)C1 (stereo not drawn) [Example A-90, 9-[5-chloro-4-(1-methyl-1H-benzimidazol-2-yl)pyridin-2-yl]-4-methoxy-1-oxa-9-azaspiro[5.5]undecane] | 88 | 71 | 16 | – |
| C[C@@H]1CN(c2cc(-c3nc4ccccc4n3C)c(Cl)cn2)CCN1S(C)(=O)=O [Example A-158, 2-{5-chloro-2-[(3R)-3-methyl-4-(methylsulfonyl)piperazin-1-yl]pyridin-4-yl}-1-methyl-1H-benzimidazole] | 99 | 9 | 2 | – |
| Cn1c(-c2cc(N3CCN(C(=O)CCS(C)(=O)=O)CC3)ncc2F)nc2ccccc21 [Example D-18, 1-{4-[5-fluoro-4-(1-methyl-1H-benzimidazol-2-yl)pyridin-2-yl]piperazin-1-yl}-3-(methylsulfonyl)propan-1-one] | 100 | 11 | 3 | – |
| CN1CCN(C2CCN(c3cc(-c4nc5ccccc5n4C)c(Cl)cn3)CC2)CC1 [Example A-113, 2-{5-chloro-2-[4-(4-methylpiperazin-1-yl)piperidin-1-yl]pyridin-4-yl}-1-methyl-1H-benzimidazole] | 72 | 125 | 17 | – |

From patent publication US20120157471A1, “BENZIMIDAZOLE DERIVATIVES” (PFIZER INC., priority 2009, published 2012)
